The METLIN SMRT retention time set (Domingo-Almenara et al. 2019)

Test: gradient 5% acetonitrile 3 min, to 50% in 2 min, to 85% in 15 min, held 3 min, 100 µL/min
Conditions: column: Zorbax Extend-C18 2.1 x 50 mm; eluents: water / acetonitrile, 0.1% formic acid
Procedure, shortened: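 The system's dead and dwell volumes were 40 μL and 900 μL, with a Zorbax Extend-C18 column (2.1 × 50 mm, 1.8 μm) run at 100 μL/min in water and acetonitrile containing 0.1% formic acid each. Pure standards were analyzed in mixtures of ~100 molecules by HPLC–quadrupole time-of-flight mass spectrometry in positive and negative ionization mode. Retention time was assigned from computationally picked, manually inspected adduct peaks.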

Structure (SMILES) | RP-LC retention time [s]
CCOC(=O)c1c(S(=O)(=O)N2CCC(C(=O)Nc3ccc(C)c(C)c3)CC2)c(C)n(C)c1C | 841
Cc1c(Cl)cccc1S(=O)(=O)NCC1CCN(C(=O)c2cc3ccccc3o2)CC1 | 934
Cc1ccccc1NC(=O)Nc1ccc2c(c1)CCN2S(=O)(=O)c1ccccc1 | 969
CCOc1ccccc1CNC(=O)c1nc(N2CCOCC2)c2ccccc2n1 | 738
Cn1cnc(S(=O)(=O)N2[C@H]3CC[C@@H]2c2cnc(-c4ccc(F)cc4)nc2C3)c1 | 764
COc1ccc(C)cc1NC(=O)C1CCN(S(=O)(=O)c2ccc3c(c2)CCCC(=O)N3)CC1 | 816
O=C(Cn1ccn2nc(-c3ccccc3)c(CO)c2c1=O)Nc1ccccc1C(F)(F)F | 830
CCCCc1nnc2sc(COc3ccc(C)c(C)c3)nn12 | 1120
CCNC(=O)NCCC1CCN(S(=O)(=O)c2ccc(C)cc2)CC1 | 748
O=C(NC1CCN(c2ccc(N3CCCCCC3)nn2)CC1)c1ccc(F)c(F)c1 | 682
O=C(COc1cccc(C(F)(F)F)c1)Nc1cc(N2CCOCC2)ncn1 | 775
CC1CCC(NC(=O)c2nnc(-c3ccc(S(=O)(=O)N4CCC(C)CC4)cc3)o2)CC1 (stereo not given) | 1210
O=C(c1ccc(Br)o1)N1C[C@@H](CO)[C@H](c2ccncc2)C1 | 515
CCC(C)NC(=O)Cn1cccc(-c2nc(-c3ccc(Cl)cc3)no2)c1=O (stereo not given) | 852
Cn1nc(C(=O)NCc2ccc3c(c2)OCO3)c2c1CCN(C(=O)c1ccco1)C2 | 725
Cc1nc([C@@H]2CN(C(=O)CCc3nc4ccccc4s3)C[C@H]2C(N)=O)n[nH]1 | 599
Cc1nnc2cc(N3CCN(C(=O)Nc4ccccc4F)CC3)cnn12 | 542
O=C(NCC(=O)N1CCN(c2ccccn2)CC1)c1cc2ccccc2[nH]1 | 600
CCc1noc(NC(C)=O)c1-c1ccc(C)c(S(=O)(=O)NCc2ccc(OC)cc2)c1 | 807
CSc1ccc(-c2nc3ncccn3c2Nc2c(C)cccc2C)cc1 | 864
CC(=O)N1CCCN(C2=NS(=O)(=O)C(c3ccc(Cl)cc3)=C2C)CC1 | 718
O=S(=O)(c1ccc2nc(N3CCN(c4ccccc4F)CC3)ccc2c1)N1CCCC1 | 998
COc1cc(C(=O)Nc2c(-c3ccc(F)cc3)nc3ccccn23)cc(OC)c1OC | 657

Structure (SMILES) | RP-LC retention time [s]
Cc1noc([C@@H]2CC(F)(F)CN2C(=O)c2cocn2)n1 | 667
COc1ccc(-c2nc3n(n2)C2(CCCCC2)[C@@H]2CCCC[C@@H]2N3C(=O)C2CC2)cc1 | 682
CN(C)c1ccc(C(=O)NCc2nn(C)c3ccccc23)cc1 | 778
Cn1c(CCNC(=O)c2ccc(F)c(F)c2)nc2cccnc21 | 617
Cc1cc(F)ccc1NC(=O)CN1C(=O)CCc2cc(S(=O)(=O)N3CCCCC3C)ccc21 (stereo not given) | 920
COCCOC1CCOC2(CCN(C(=O)c3cccs3)CC2)C1 (stereo not given) | 691
Cn1nc(C(=O)N2CCCC2)c2c1CCN(C(=O)CCC(=O)N1CCCCC1)C2 | 653
COc1cc(NC(=O)COc2ccc(-c3nnc4n3CCCC4)cc2)cc(OC)c1OC | 646
Cn1c(N2CCCN(C(=O)c3ccc(Br)o3)CC2)cc(=O)n(C)c1=O | 653
CCOc1ccc(-c2[nH]ncc2CNS(=O)(=O)Cc2ccc(C)c(C)c2)cc1 | 896
Cc1c(C(=O)N2CCOCC2)sc2nc(-c3ccccc3)c(NC(C)(C)C)n12 | 778
C#CCSc1nc2sc(C)c(C)c2c(=O)n1C | 983
CC(=O)c1sc(NC(=O)c2ccccc2[N+](=O)[O-])nc1C | 679
Cc1noc([C@@H]2CN(C(=O)c3occc3C)C[C@H]2CO)n1 | 642
CS(=O)(=O)N(C1CCOCC1)C1CN(C(=O)c2cc(F)ccc2F)C1 | 687
CC1CN(c2nc(Nc3ccc(Cl)cc3)c3cnn(C)c3n2)CC(C)O1 (stereo not given) | 1040
CCOC(=O)N1CCC(NC(=O)CCc2cc3ccc(C)cc3[nH]c2=O)CC1 | 689
CCOc1ccccc1CNC(=O)CN1CCN(Cc2ccc(F)cc2Cl)C1=O | 920
COc1ccc(OCC(=O)N2CCN(c3cc(C)n4cnnc4n3)CC2)cc1 | 593
CCc1cccc(C)c1NC(=O)Cn1nc2n(c1=O)CCCC2 | 717
Cc1cc(C)c(NC(=O)Cn2c(N(C)Cc3ccccc3)nc(C)cc2=O)c(C)c1 | 860
CCOC(=O)c1c(C)n(Cc2ccco2)c2ccc(O)cc12 | 854
